The values below come from patent US10632127B2, “Targeted notch pathway inhibitors” (Hoffmann-La Roche Inc., priority 2015, dated 2020).

For data set [1], the system named is Notch signal transduction pathway. Nature of the data set: In vitro Notch signal transduction pathway activity assay (DR215/F2 luciferase reporter). In kind it is cell-based, human. The conditions noted are these: for pIC50: Homo sapiens, 215/F2 reporter cell line, 19 h, mean of at least 3 experiments; for IC50 for blockade of the Notch pathway, range in words: DR215/F2 cell reporter assay. As for the experimental part: The compounds were dissolved in dimethyl sulfoxide (DMSO) at 10 mM stock solution, aliquoted and stored at −4° C. until use, then diluted in PBS or cell culture medium. In the experimental settings, controls containing increasing concentrations of DMSO, corresponding to the amount of DMSO of the diluted compounds were always included. For in vivo experiments, the compounds were dissolved in 0.9% NaCl, incubated 30 min at 40° C. and sonicated for 5 min.
The requirement of proteolytic activation of the prodrugs to inhibit Notch cleavage by the γ-secretase, was investigated using a reporter assay (Table 3). The DR215/F2 cell line expresses a reporter construct designed to monitor the activity of the Notch signal transduction pathway. The DR215/F2 cell line 39 carries two transgenes: the firefly luciferase reporter gene expressed under the control of the Gal4 promoter and the human Notch1 activator gene fused with the yeast Gal4 transcription factor. This assay confirmed that the prodrugs were able to inhibit γ-secretase and the activation of the Notch pathway. The DR215/F2 cell reporter assay was also used to determine the IC50 for blockade of the Notch pathway by all the compounds designed and prepared.
The values were determined using the 215/F2 reporter cell line for Notch activation by the γ-secretase. All values are the mean of at least 3 experiments.
The preparation and characterization of rat brain-derived EC219 endothelial cells have been described in Juillerat-Jeanneret, L. et al. In Vitro Cell. Dev. Biol. 1992, 28A, 537-543. These cells express high levels of APA and γ-GT activities and can be used for determining kinetics in living cells, and were chosen as APA- and γ-GT-positive representative cell models. EC219 cells were grown in DMEM medium containing 1 g/l glucose, 10% heat-inactivated fetal calf serum (FCS, EuroClone, UK) supplemented with 100 U/mL penicillin and 100 μg/mL streptomycin (P/S) on uncoated cell culture plastic ware. The HEK293 and HK2 human kidney cells are available from the ATCC (American Tissue Culture Collection, Manassas, Va., USA). HEK293 cells were grown on uncoated cell culture plastic ware in Iscove modified Dulbecco medium (IMDM, Life Technologies) containing 10% FCS and P/S. HK2 cells were grown on uncoated cell culture plastic ware in DMEM/F-12 GlutaMAX medium (Gibco) containing 5% FCS, P/S, 1% ITS (1.0 mg/ml bovine insulin, 0.55 mg/ml human transferrin and 0.5 μg/ml sodium selenite, Sigma-Aldrich) and 5 ng/ml hydrocortisone. The human HEK293-derived DR215/F2 embryonic kidney cell line, stably transfected with pFR Luc and APP-Notch Gal (plasmid DR215) as described in WO 2006/061136 A2 and Brockhaus, M. Neuroreport 1998 9, 1481-1486, were maintained using IMDM with 10% FCS supplemented with P/S and kept under double-selection with 150 μg/ml G-418 and 50 μg/ml hygromycin B on coated (1:100 Poly-L-lysine) cell culture plastic ware. In this assay, the Notch-Gal4 protein is bound to the cell membrane via its trans-membrane domain. The Notch intracellular domain is released by proteolytic cleavage mediated by the γ-secretase and moves to the cell nucleus where it activates the reporter luciferase gene transcript. Inhibition of γ-secretase thus decreases luciferase activity. Briefly, cultures were grown in 96-well microplates to 80% confluence; the cells were then washed in PBS and exposed to decreasing concentrations of the γ-secretase-inhibitor analogues in complete IMDM culture medium without red phenol at 37° C. for 19 h. Then 75 μl of supernatant from each well was removed and the luciferase activity was determined by adding 25 μl of Steady-Glo luciferase assay reagent (Promega).
Background: A reporter such as luciferase makes a cellular process visible.

Data set [2] can be described thus: Pharmacokinetic assessment in male Wistar rats (i.v.). The class given is in vivo, rat. The note with it: for concentration at 0.25 h / concentration at 0.5 h: rat, intravenous. As for the experimental part: (§1) For PK evaluation, the compounds were administered i.p to male C57BL/6 mice in suspension (gelatine/saline 7.5%/0.62% in water) using an administration volume of 4 mL/kg. Blood samples were collected in tubes containing EDTA, plasma was separated by centrifugation and stored at −80° C. Liver and kidney samples (˜100 mg aliquots) were homogenized in three volumes of water using Precellys tissue homogenization tubes (precellys.com). 25 μL of each tissue homogenate was further diluted with 25 μL blank plasma to produce the final tissue homogenate for extraction. All samples were analyzed using protein precipitation followed by LC-MS/MS analysis. Briefly, 50 μL plasma or final tissue homogenate were mixed with 50 μL 0.5M HClO4/acetonitrile 9/1 (containing 200 ng/mL internal standard bosentan). Samples were stirred and 300 μL water was added followed by centrifugation at 5600 rpm (4° C., 10 min). 10 μL supernatant was analyzed by LC/MS analysis. Calibration standards in plasma were prepared the same way. The LC column and conditions used were: Phenomenex, Polar RP, 4 μm, 50×2.1 mm at 0.4 mL/min flow rate with a 3 min gradient from 95% solvent A to 95% solvent B (Solvent A: Water/ACN/HCOOH, 90:10:0.1+10 mM NH4 formate; Solvent B: Water/ACN/HCOOH, 10:90:0.1+10 mM NH4 formate). Mass spectrometric conditions were: Thermo TSQ Vantage with positive heated electrospray ionization in MS/MS mode. Compounds mass transitions monitored were m/z 320.7 to 119.9. PK parameters for all studies were calculated using Phoenix WinNonlin Software.
We next determined the stability, tissue distribution and cleavage rate in plasma, liver and kidney of the designed prodrugs in male Wistar rats. In the in vivo screen, the kinetics and distribution of the prodrugs Ac-γ-Glu-SecrI (13a) and Ac-γ-Glu-O-SecrI (13c) were compared with the active γ-secretase inhibitor SecrI (8). After i.v. administration in male Wistar rats, the disappearance of the prodrugs and the formation of the active amine-SecrI (11a), amine-O-SecrI (11b) and SecrI (8) were compared in plasma, liver and kidney (Table 7A-C). First, we determined the pharmacokinetics (PK) behavior of SecrI (8) following i.v. administration (Table 7A). […] Liver and kidney exposure were much higher, with same exposure in liver and kidney. […] The selectivity towards kidney stayed constant over time. The carbonate analogue Ac-γ-Glu-O-SecrI (13c) prodrug was converted to a lower extent than the Ac-γ-Glu-SecrI (13a) to amine-O-SecrI (11b) but more to the linker free γ-secretase inhibitor 8 (Table 7C).
Plasma and tissue concentrations of administered compound (A-C) and formed amine-SecrI (11a), amine-O-SecrI (11b) or SecrI (8) (B-C) were determined following i.v. administration in rats (no standard deviation given due to sparse sampling; n≤3 rats per time point). Numbers in parentheses represent relative amounts with the exposure of kidney arbitrarily set at each time point to 100%. […] BQL=below quantifiable limit.

Data set [3] in a line: Pharmacokinetic assessment in C57BL/6 healthy wild-type mice (i.p.). The class given is in vivo, mouse. The note with it: C57BL/6 mice, 10 mg/kg i.p. As for the experimental part: as §1
We next determined the stability, tissue distribution and cleavage rate in plasma, liver and kidney of the designed prodrugs in non-diseased mice. In the in vivo screen, the kinetics and distribution of γ-secretase inhibitor prodrugs Ac-γ-Glu-SecrI (13a), Ac-α-Glu-SecrI (15a) and H-α-Glu-SecrI (15b) were compared with the active γ-secretase inhibitor amine-SecrI (11a). After i.p administration (10 mg/kg) in C57BL/6 mice, the disappearance of the prodrugs and the formation of the active amine-SecrI (11a) were compared in plasma, liver and kidney (Table 5). First, we determined the pharmacokinetics (PK) behavior of amine-SecrI (11a) following i.p. administration (Table 5A). […] Liver and kidney exposure were much higher, with approximately 4.5-fold higher exposure in liver compared to kidney. […] The selectivity towards kidney appeared to decrease over time, probably due to fast clearance and re-equilibration of the amine-SecrI (11a). However, the high selectivity at earlier time-points assured that the total exposure over time was much higher in the kidney compared to the liver.

pIC50: −log10 of the molar value. Where a name gives a salt, the structure may show the parent alone. Read-outs that look alike come from different tables or passages of the source.

As usually defined, the pIC50 is the IC50 on a negative log10 scale, so that one unit is a factor of ten. In data set [1], `CC(=O)N[C@@H](CCC(=O)NCCOC(=O)OCCN1C(=O)[C@@H](NC(=O)[C@@](C)(O)C(=O)NCC(F)(F)C(F)(F)F)[C@@H](C)Oc2ccc(F)cc21)C(=O)O` [Compound 13c, (S)-2-acetamido-5-(2-((2-((2R,3S)-7-fluoro-3-((S)-2-hydroxy-2-methyl-3-oxo-3-(2,2,3,3,3-pentafluoropropylamino)propanamido)-2-methyl-4-oxo-3,4-dihydrobenzo[b][1,4]oxazepin-5(2H)-yl)ethoxy)carbonyloxy)ethylamino)-5-oxopentanoic acid] showed a pIC50 of 6.77. In addition, the “Kidney concentration of 13c” value is on record as “BQL” in data set [2] (13c 1.5 mg/kg i.v., 4 h) and “BQL” in data set [2] (13c 1.5 mg/kg i.v., 7 h). Moreover, the “Liver concentration of 13c” value was “BQL” in data set [2] (13c 1.5 mg/kg i.v., 4 h) and “BQL” in data set [2] (13c 1.5 mg/kg i.v., 7 h). Besides, the “Plasma concentration of 13c” value is reported as “BQL” in data set [2] (13c 1.5 mg/kg i.v., 4 h) and “BQL” in data set [2] (13c 1.5 mg/kg i.v., 7 h). In data set [2] (13c i.v., compared with 13a), the “conversion to amine-O-SecrI (11b), in words” value is “lower extent”. The “conversion to the linker-free γ-secretase inhibitor 8, in words” value in data set [2] (i.v.) is given as “significantly converted”. The concentration at 0.25 h in data set [2] (kidney, 13c 1.5 mg/kg i.v., 0.25 h, read-out: Kidney concentration of 13c) was found to be 20.5 ng/g; in data set [2] (liver, 13c 1.5 mg/kg i.v., 0.25 h, read-out: Liver concentration of 13c) it was 196 ng/g; in data set [2] (plasma, 13c 1.5 mg/kg i.v., 0.25 h, read-out: Plasma concentration of 13c), 53 ng/mL. Moreover, the concentration at 0.5 h in data set [2] (kidney, 13c 1.5 mg/kg i.v., 0.5 h, read-out: Kidney concentration of 13c) stood at 3.8 ng/g; in data set [2] (liver, 13c 1.5 mg/kg i.v., 0.5 h, read-out: Liver concentration of 13c) it was 32.3 ng/g; in data set [2] (plasma, 13c 1.5 mg/kg i.v., 0.5 h, read-out: Plasma concentration of 13c) it was 4.6 ng/mL.
Take `C[C@H]1Oc2ccc(F)cc2N(CCOC(=O)OCCN)C(=O)[C@H]1NC(=O)[C@@](C)(O)C(=O)NCC(F)(F)C(F)(F)F` [Compound 11b, 2-Aminoethyl 2-((2R,3S)-7-fluoro-3-((S)-2-hydroxy-2-methyl-3-oxo-3-(2,2,3,3,3-pentafluoropropylamino)propanamido)-2-methyl-4-oxo-3,4-dihydrobenzo[b][1,4]oxazepin-5(2H)-yl)ethyl carbonate hydrochloride]: in data set [1], the “IC50 for blockade of the Notch pathway, range in words” value is “low nanomolar range”. In addition, the pIC50 in data set [1] was 9.30. The “Plasma concentration of formed 11b” value in data set [2] (13c 1.5 mg/kg i.v., 0.25 h) was “BQL”; in data set [2] (13c 1.5 mg/kg i.v., 0.5 h) it was “BQL”; in data set [2] (13c 1.5 mg/kg i.v., 4 h), “BQL”; in data set [2] (13c 1.5 mg/kg i.v., 7 h) it was “BQL”. The “Formed 11b in kidney, relative amount (arbitrarily set to 100%)” value in data set [2] (13c 1.5 mg/kg i.v., 7 h) is on record as “(100) %”. The “kidney selectivity, in words” value in data set [2] (formed after 13c i.v.) is “very good kidney selectivity”.
With `C[C@H]1Oc2ccc(F)cc2N(CCOC(=O)NCCNC(=O)[C@@H](N)CCC(=O)O)C(=O)[C@H]1NC(=O)[C@@](C)(O)C(=O)NCC(F)(F)C(F)(F)F` [Compound 15b, (S)-4-amino-5-(2-((2-((2R,3S)-7-fluoro-3-((S)-2-hydroxy-2-methyl-3-oxo-3-(2,2,3,3,3-pentafluoropropylamino)propanamido)-2-methyl-4-oxo-3,4-dihydrobenzo[b][1,4]oxazepin-5(2H)-yl)ethoxy)carbonylamino)ethylamino)-5-oxopentanoic acid hydrochloride], in data set [3], the “conversion to amine-SecrI (11a), in words” value was “overall highest conversion”. Further, the “Kidney concentration of administered compound” value in data set [3] (4 h) and in data set [3] (7 h) was “BQL” each time. In addition, the “Plasma concentration of administered compound” value in data set [3] (4 h) and in data set [3] (7 h) was “BQL” throughout. Further, the concentration at 0.5 h in data set [3] (male, mouse, kidney, ip, read-out: Kidney concentration of administered compound) is 8.51 ng/g; in data set [3] (male, mouse, liver, ip, read-out: Liver concentration of administered compound), 277 ng/g; in data set [3] (male, mouse, plasma, ip, read-out: Plasma concentration of administered compound), 3.67 ng/mL. For the same molecule, in data set [3] (male, mouse, liver, ip, 4 h, read-out: Liver concentration of administered compound), the concentration at 4 h is 60.7 ng/g. Also, the concentration at 7 h in data set [3] (male, mouse, liver, ip, 7 h, read-out: Liver concentration of administered compound) is 5.78 ng/g. Further, the “IC50 for blockade of the Notch pathway, range in words” value in data set [1] is “high nM range”. This molecule also gave a pIC50 in data set [1] of 6.59.
